Data reported in patent US5523314A, “Compounds useful as hypoglycemic agents and for treating Alzheimer's disease” (priority 1994, dated 1996).
Read-outs that look alike come from different tables or passages of the source.

Legend:
Human liver cathepsin D = biological target: T1, Human liver cathepsin D (Homo sapiens, UniProt P07339); assay: Cathepsin D inhibition, fluorometric assay (Tables 5 and 6); type: biochemical; conditions: for inhibition at 10 µg/mL (stock): Compound Stock Concentration 10.0 μg/ml; for inhibition at 4.15 µg/mL (stock): Compound Stock Concentration 4.15 μg/ml; for ability to inhibit cathepsin D: compared to structurally similar compounds known in the art, in words; for inhibition at 8.3 µg/mL (stock): Compound Stock Concentration 8.3 μg/ml
T1 construct: purchased Athens Research and Technology, Athens, Ga; host or cells: human liver
T1 sequence (P07339 169-412 limits assumed): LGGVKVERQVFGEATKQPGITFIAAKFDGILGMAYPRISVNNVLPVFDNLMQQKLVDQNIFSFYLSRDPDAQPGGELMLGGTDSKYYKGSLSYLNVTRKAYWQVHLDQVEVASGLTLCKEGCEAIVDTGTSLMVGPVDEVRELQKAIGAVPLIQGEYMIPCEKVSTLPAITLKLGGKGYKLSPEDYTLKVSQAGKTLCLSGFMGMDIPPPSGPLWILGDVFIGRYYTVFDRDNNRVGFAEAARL
T1 sequence (P07339 65-161 limits assumed): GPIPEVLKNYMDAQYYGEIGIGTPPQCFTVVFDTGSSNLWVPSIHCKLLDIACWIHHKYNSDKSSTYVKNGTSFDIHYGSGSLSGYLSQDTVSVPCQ
Method: Human liver cathepsin D (Athens Research and Technology, Athens, Ga.) was diluted in assay buffer, 200 mM NaOAc, pH 4.5, 150 mM NaCl to 500 ng/mL and then 100 μL of this cathepsin D solution was added to each well of a 96 well plate with the exception of control wells which received just 100 μL of assay buffer. […] Blank and enzyme control wells each received 5 μL of the DMSO vehicle.
After incubation at 37° C. for 30 minutes, cathepsin D activity was terminated by the addition of 100 μL per well of 400 mU/mL microsomal leucine aminopeptidase (EC 3.4.11.2, Sigma, St. Louis, Mo.) in 1M Tris-HCl, pH 8.0.
Following a two hour incubation at 37° C., to allow the aminopeptidase to release the fluorophore, 7-amido-4-methylcoumarin (AMC) from the products of cathepsin D cleavage, the plates were again analyzed in the fluorometer. In order to check for potential false positives, i.e., inhibitors of microsomal leucine aminopeptidase, residual aminopeptidase activity was monitored directly in each well by the addition of 20 μL/well of 2.5 mM Leu-pNA (Bachem Biosciences, Philadelphia, Pa.) in 10% DMSO.

blood glucose level = assay: Hypoglycemic activity in obese diabetic mice (Table 1); type: in vivo, male viable yellow obese-diabetic mice; conditions: for response vs control in vivo at 50 mg/kg: Mus musculus, ip, intraperitoneal
Method: The hypoglycemic activity of the compounds of the present invention was determined by testing the efficacy of the compounds in vivo in male viable yellow obese-diabetic mice. The test procedure is described in detail below.
Test formulations were prepared by dissolving the test compound in a saline solution containing 2% Emulphor (a polyoxyethylated vegetable oil surfactant from GAP Corp.) to provide the dose level desired. Each test formulation was administered to six viable yellow obese-diabetic mice intraperitoneally at the beginning of the experiment. Blood glucose levels were determined immediately before the first dose and at 2 and 4 hours thereafter using glucose oxidase. A mean was taken of the 6 values obtained before the first dose and at the 2 and 4 hour intervals. In Table 1, Column 1 provides the example number of the test compound, Column 2 provides the dose level of compound tested, and Columns 3 and 4 provide a measurement of the test animal's blood glucose level 2 and 4 hours after test compound administration, respectively, as a percentage of the test animal' s pre-administration blood glucose level.

[1] = 2 h, 2 hrs, read-out: Percent of Initial Blood Glucose Level After 2 hrs.
[2] = 4 h, 4 hrs, read-out: Percent of Initial Blood Glucose Level After 4 hrs.

CS(=O)(=O)Nc1cccc(C=C2SC(=S)NC2=O)c1 [Example 1, 5-[(3-methanesulfonamidophenyl)methylene]-2-thioxo-4-thiazolidinone]
inhibition at 10 µg/mL (stock) (Human liver cathepsin D): 36%
response vs control in vivo at 50 mg/kg (blood glucose level; [1]): 82 ± 5%
response vs control in vivo at 50 mg/kg (blood glucose level; [2]): 75 ± 2%

O=C1NC(=S)SC1=C(c1ccccc1)c1ccccc1 [Example 4, 5-(diphenylmethylene)-2-thioxo-4-thiazolidinone]
inhibition at 10 µg/mL (stock) (Human liver cathepsin D): 50%
response vs control in vivo at 50 mg/kg (blood glucose level; [1]): 91 ± 4%
response vs control in vivo at 50 mg/kg (blood glucose level; [2]): 72 ± 7%

O=C1NC(=S)SC1=Cc1ccc(O)cc1 [Example 8, 5-[(4-hydroxyphenyl)methylene]-2-thioxo-4-thiazolidinone]
inhibition at 10 µg/mL (stock) (Human liver cathepsin D): 64%
response vs control in vivo at 50 mg/kg (blood glucose level; [1]): 94 ± 4%
response vs control in vivo at 50 mg/kg (blood glucose level; [2]): 84 ± 6%

COc1ccc(C=C2SC(=S)NC2=O)cc1 [Example 18, 5-[(4-methoxyphenyl)methylene]-2-thioxo-4-thiazolidinone]
inhibition at 10 µg/mL (stock) (Human liver cathepsin D): 38%
response vs control in vivo at 50 mg/kg (blood glucose level; [1]): 89 ± 4%
response vs control in vivo at 50 mg/kg (blood glucose level; [2]): 88 ± 5%

COc1ccc(C(=C2SC(=S)NC2=O)c2ccccc2)cc1 [Example 21, 5-[(4-methoxyphenyl)phenylmethylene]-2-thioxo-4-thiazolidinone]
inhibition at 4.15 µg/mL (stock) (Human liver cathepsin D): 40%
response vs control in vivo at 50 mg/kg (blood glucose level; [1]): 99 ± 4%
response vs control in vivo at 50 mg/kg (blood glucose level; [2]): 81 ± 6%

CC(C)(C)c1cc(C=C2SC(=S)NC2=O)cc(C(C)(C)C)c1O [Example 28, 5-[[3,5-bis(1,1-dimethylethyl)-4-hydroxyphenyl]methylene]-2-thioxo-4-thiazolidinone]
IC50 (Human liver cathepsin D): 3.1 µM
response vs control in vivo at 50 mg/kg (blood glucose level; [1]): 83 ± 9%
response vs control in vivo at 50 mg/kg (blood glucose level; [2]): 79 ± 7%

O=C1NC(=S)SC1=Cc1ccc2ccccc2c1 [Example 35, 5-[(2-naphthalenyl)methylene)-2-thioxo-4-thiazolidinone]
IC50 (Human liver cathepsin D): 8.9 µM
inhibition at 4.15 µg/mL (stock) (Human liver cathepsin D): 57%
response vs control in vivo at 50 mg/kg (blood glucose level; [1]): 83 ± 5%
response vs control in vivo at 50 mg/kg (blood glucose level; [2]): 85 ± 6%

CCCOc1cc(C=C2SC(=S)NC2=O)ccc1OCC [Example 50, 5-[(3-propoxy-4-ethoxyphenyl)methylene]-2-thioxo-4-thiazolidinone]
inhibition at 4.15 µg/mL (stock) (Human liver cathepsin D): 40%
response vs control in vivo at 50 mg/kg (blood glucose level; [1]): 75 ± 5%
response vs control in vivo at 50 mg/kg (blood glucose level; [2]): 69 ± 5%
ability to lower blood glucose levels in mammals (blood glucose level; compared to structurally similar compounds known in the art, in words): surprising ability to lower blood glucose levels in mammals

O=C1NC(=S)SC1=Cc1cc(Cl)c(O)c(Cl)c1 [Example 55, 5-[(3,5-dichloro-4-hydroxyphenyl)methylene]-2-thioxo-4-thiazolidinone]
inhibition at 4.15 µg/mL (stock) (Human liver cathepsin D): 90%
ability to inhibit cathepsin D (Human liver cathepsin D): surprising ability to inhibit cathepsin D levels
response vs control in vivo at 50 mg/kg (blood glucose level; [1]): 81 ± 3%
response vs control in vivo at 50 mg/kg (blood glucose level; [2]): 75 ± 3%

O=C1NC(=S)SC1=Cc1cccc2ccccc12 [Example 75, 5-[(1-naphthyl)methylene]-2-thioxo-4-thiazolidinone]
inhibition at 10 µg/mL (stock) (Human liver cathepsin D): 43%

CC(=C1SC(=S)NC1=O)c1ccc2ccccc2c1 [Example 76, 5-[(2-naphthyl)methylmethylene]-2-thioxo-4-thiazolidinone]
inhibition at 10 µg/mL (stock) (Human liver cathepsin D): 32%

CC(=C1SC(=S)NC1=O)c1cccc(Oc2ccccc2)c1 [Example 78, 5-[(3-phenoxyphenyl)methylmethylene]-2-thioxo-4-thiazolidinone]
IC50 (Human liver cathepsin D): 22.1 µM
inhibition at 4.15 µg/mL (stock) (Human liver cathepsin D): 41%

CCCCCCCOc1ccc(C=C2SC(=S)N(N)C2=O)cc1OC [Example 80, 5-[(3-methoxy-4-heptoxyphenyl)methylene]-2-thioxo-3-amino-4-thiazolidinone]
IC50 (Human liver cathepsin D): 47 µM
inhibition at 8.3 µg/mL (stock) (Human liver cathepsin D): 33%

CN(C)c1ccc(C=C2SC(=S)NC2=O)cc1 [Example 82, 5-[[4-(dimethylamino)phenyl]methylene]-2-thioxo-4-thiazolidinone]
inhibition at 10 µg/mL (stock) (Human liver cathepsin D): 73.5%

CCCCCCCOc1ccc(C=C2SC(=S)N(N(C)C)C2=O)cc1 [Example 83, 5-[(4-heptoxyphenyl)methylene]-2-thioxo-3-dimethylamino-4-thiazolidinone]
inhibition at 4.15 µg/mL (stock) (Human liver cathepsin D): 47%

CCOc1cc(C=C2SC(=S)N(C3CCCCC3)C2=O)ccc1O [Example 84, 5-[(3-ethoxy-4-hydroxyphenyl)methylene]-2-thioxo-3-cyclohexyl-4-thiazolidinone]
inhibition at 4.15 µg/mL (stock) (Human liver cathepsin D): 51%

CN1C(=O)C(=Cc2cc(C(C)(C)C)c(O)c(C(C)(C)C)c2)SC1=S [Example 85, 5-[[3,5-bis(1,1-dimethylethyl)-4-hydroxyphenyl]methylene]-2-thioxo-3-methyl-4-thiazolidinone]
IC50 (Human liver cathepsin D): 14.3 µM

CS(=O)(=O)Nc1cccc(C=C2SC(=S)N(CC(=O)O)C2=O)c1 [Example 86, 5-[(3-methanesulfonamidophenyl)methylene]-4-oxo-2-thioxo-3-thiazolidine acetic acid]
inhibition at 8.3 µg/mL (stock) (Human liver cathepsin D): 42%

COc1c(C(C)(C)C)cc(C=C2SC(=S)NC2=O)cc1C(C)(C)C [Example 87, 5-[[3,5-bis(1,1-dimethylethyl)-4-methoxyphenyl]methylene]-2-thioxo-4-thiazolidinone]
IC50 (Human liver cathepsin D): 2.2 µM

CCOc1cc(C=C2SC(=S)N(C)C2=O)ccc1O [Example 88, 5-[(3-ethoxy-4-hydroxyphenyl)methylene]-2-thioxo-3-methyl-4-thiazolidinone]
IC50 (Human liver cathepsin D): 11.2 µM
inhibition at 4.15 µg/mL (stock) (Human liver cathepsin D): 67%
inhibition at 8.3 µg/mL (stock) (Human liver cathepsin D): 82%
ability to inhibit cathepsin D (Human liver cathepsin D): surprising ability to inhibit cathepsin D levels

CCOc1cc(C=C2SC(=S)N(N(C)C)C2=O)cc(CSc2ccccc2)c1O [Example 89]
IC50 (Human liver cathepsin D; 50% inhibition of cathepsin D): 9.2 µM
inhibition at 8.3 µg/mL (stock) (Human liver cathepsin D): 71%

CCOc1cc(C=C2SC(=S)N(N(C)C)C2=O)ccc1O [Example 90, 5-[(3-ethoxy-4-hydroxyphenyl)methylene]-2-thioxo-3-dimethylamino-4-thiazolidinone]
IC50 (Human liver cathepsin D): 7.7 µM
inhibition at 4.15 µg/mL (stock) (Human liver cathepsin D): 79%
inhibition at 8.3 µg/mL (stock) (Human liver cathepsin D): 92%
ability to inhibit cathepsin D (Human liver cathepsin D): surprising ability to inhibit cathepsin D levels

CCCCCOc1ccc(C=C2SC(=S)N(CC(=O)O)C2=O)cc1OCCCCC [Example 91, 5-[(3,4-dipentoxyphenyl)methylene]-4-oxo-2-thioxo-3-thiazolidine acetic acid]
IC50 (Human liver cathepsin D): 9.7 µM
inhibition at 4.15 µg/mL (stock) (Human liver cathepsin D): 72%
ability to inhibit cathepsin D (Human liver cathepsin D): surprising ability to inhibit cathepsin D levels

CN1C(=O)C(=Cc2ccc(O)c(C(C)(C)C)c2)SC1=S [Example 92, 5-[[3-(1,1-dimethylethyl)-4-hydroxyphenyl]methylene]-2-thioxo-3-methyl-4-thiazolidinone]
IC50 (Human liver cathepsin D): 3.9 µM
inhibition at 4.15 µg/mL (stock) (Human liver cathepsin D): 74%
ability to inhibit cathepsin D (Human liver cathepsin D): surprising ability to inhibit cathepsin D levels

CCCCCCCOc1ccc(C=C2SC(=S)N(N(C)C)C2=O)cc1OCCCCCCC [Example 93, 5-[(3,4-diheptoxyphenyl)methylene]-2-thioxo-3-dimethylamino-4-thiazolidinone]
IC50 (Human liver cathepsin D): 7.5 µM

CCCCOc1ccc(C=C2SC(=S)N(N(C)C)C2=O)cc1OCCCC [Example 94, 5-[(3,4-dibutoxyphenyl)methylene]-2-thioxo-3-dimethylamino-4-thiazolidinone]
inhibition at 4.15 µg/mL (stock) (Human liver cathepsin D): 48%

C=CCN1C(=O)C(=Cc2ccc(OCCCCCCC)c(OC)c2)SC1=S [Example 95, 5-[(3-methoxy-4-heptoxyphenyl)methylene]-2-thioxo-3-(2-propenyl)-4-thiazolidinone]
inhibition at 8.3 µg/mL (stock) (Human liver cathepsin D): 36%
